Experimental data taken from patent US20250000836A1, “PARTICLE DELIVERY OF THYROID HORMONE RECEPTOR AGONISTS AND ANTAGONISTS” (CYTA THERAPEUTICS, INC., priority 2021, published 2025).
Marks after values point to notes of the source that are not given here.

Experiments:
[1] = Body weight and liver weight in the 12 week and 24 week HFD NASH models; type: in vivo, mice; conditions: the two models (12 week and 24 week HFD), i.p. once per day, 5 weeks
Method: All animal care and experimental procedures were approved by the Ethical Committee on Animal Care and Experimentation. Male C57BL/6J mice were purchased at 6 weeks of age from the Jackson Laboratory and housed in a controlled environment (12 h light/dark cycle, 21±2° C., humidity 50±10%). Mice were permitted ad libitum access to water and either 10 kcal % fat control diet (CD, Cat #D09100304, Research Diets) or 40 kcal % fat, 20 kcal % fructose and 2% cholesterol high fat diet (HFD, Cat #D09100310, Research Diets). […]
Body weight and food intake per cage were measured regularly during the study. […]

[2] = tested on: HFD-induced NASH, mouse liver; test: Liver histology (H&E, Masson's trichrome), 24 week study; type: in vivo, mice; conditions: groups CGS-2 / CNG-2 (10 μg/kg CGS26214 i.p. once per day, 5 weeks)
Method: To test the therapeutic effect of CGS-ANG in treating HFD-induced NASH, mice were fed HFD or LFD for 24 weeks (fully developed NASH model) and then randomly assigned to 9 groups with 8-10 mice per group before the medical treatments: (1), CD: mice fed the CD diet and treated with vehicle; (2), HFD: mice fed the HFD diet and treated with vehicle; (3), CGS-D1: mice fed the HFD diet and treated with 5 μg/kg of CGS26214; (4), CGS-D2: mice fed the HFD diet and treated with 10 μg/kg of CGS26214; (5) CGS-D3: mice fed the HFD diet and treated with 20 μg/kg of CGS 26214; (6) CNG-D1: mice fed the HFD diet and treated with CGS-ANG loaded with CGS26214 at a dose of 5 μg/kg; (7) CNG-D2: mice fed the HFD diet and treated with CGS-ANG loaded with CGS 26214 at a dose of 10 μg/kg; (8) CNG-D3: mice fed the HFD diet and treated with CGS-ANG loaded with CGS 26214 at a dose of 20 μg/kg; (9) BNG: mice fed the HFD diet and treated with BNG with the same dose of nanogels as group (8). All the treatments were injected intraperitoneally at the doses indicated once per day before the dark cycle of the day for 5 weeks. […]

[3] = tested on: HFD-induced NASH (mild NASH model), male C57BL/6J mice; test: Serum biochemical analysis, mild NASH model (12 week HFD prior to dosing); type: in vivo; conditions: for ALT / AST / Cholesterol / HDL Cholesterol / LDL Cholesterol / Triglycerides: serum, 12 week HFD prior to dosing, 5 weeks, mean ± SE
Method: (§1) All animal care and experimental procedures were approved by the Ethical Committee on Animal Care and Experimentation. Male C57BL/6J mice were purchased at 6 weeks of age from the Jackson Laboratory and housed in a controlled environment (12 h light/dark cycle, 21±2° C., humidity 50±10%). Mice were permitted ad libitum access to water and either 10 kcal % fat control diet (CD, Cat #D09100304, Research Diets) or 40 kcal % fat, 20 kcal % fructose and 2% cholesterol high fat diet (HFD, Cat #D09100310, Research Diets).
To test the preventative effect of CGS-ANG in treating HFD-induced NASH, mice were fed high fat diet (HFD) or low fat diet (CD) for 12 weeks (mild NASH model) and then randomly assigned to 9 groups with 8-10 mice per group before treatment: (1), CD: mice fed the CD diet and treated with vehicle; (2), HFD: mice fed the HFD diet and treated with vehicle; (3), CGS-D1: mice fed the HFD diet and treated with 10 μg/kg of CGS26214 (suspended in saline with 1% DMSO); (4), CGS-D2: mice fed the HFD diet and treated with 20 μg/kg of CGS26214; (5) CGS-D3: mice fed the HFD diet and treated with 60 μg/kg of CGS26214; (6) CNG-D1: mice fed the HFD diet and treated with CGS-ANG loaded with CGS26214 at a dose of 10 μg/kg; (7) CNG-D2: mice fed the HFD diet and treated with CGS-ANG loaded with CGS26214 at a dose of 20 μg/kg; (8) CNG-D3: mice fed the HFD diet and treated with CGS-ANG loaded with CGS 26214 at a dose of 60 μg/kg; (9) BNG: mice fed the HFD diet and treated with BNG with the same dose of nanogels with group (8). All the treatments were injected intraperitoneally at the doses indicated once per day before the dark cycle of the day for 5 weeks.
(§2) After each designated treatment period, all the mice were sacrificed unfasted by cardiac puncture after gradual-fill CO2 asphyxiation. Terminal blood samples were collected in SST-SERUM separator tubes for serum collection. Epididymal fat pads (EFP), liver and hearts were removed and weighed. Data (weight gain, liver weight, heart weight, epididymal fat pad weight) from the 12 week and 24 week study are shown in FIGS. 3A-3D and 4A-4D, respectively. Portions of livers and hearts were collected and stored at −80° C. or fixed in 4% paraformaldehyde solution (Sigma-Aldrich, St. Louis, MO) for further analysis. Visual images of mice from each treatment groups at 24 weeks is shown in FIG. 5 while images of mice liver from each treatment group at 24 weeks is shown in FIG. 6.
(§3) Analysis of serum cholesterol (TC), high-density lipoprotein cholesterol (HDL-C), low-density lipoprotein cholesterol (LDL-C), triglycerides (TG), serum alanine aminotransferase (ALT) and aspartate aminotransferase (AST) was performed at Indexx BioAnalytics (North Grafton, MA) Plasma glucose, insulin, amyloid A (SAA), E-selectin and monocyte chemoattractant protein-1 (MCP-1) were quantified using commercial kits. Data from the 12 week and 24 week study are shown in Table 2 and Table 3, respectively.

[4] = tested on: HFD-induced NASH (fully developed NASH model), male C57BL/6J mice; test: Serum biochemical analysis, fully developed NASH model (24 week HFD prior to dosing); type: in vivo; conditions: 5 weeks, mean ± SE
Method: as §1
To test the therapeutic effect of CGS-ANG in treating HFD-induced NASH, mice were fed HFD or LFD for 24 weeks (fully developed NASH model) and then randomly assigned to 9 groups with 8-10 mice per group before the medical treatments: (1), CD: mice fed the CD diet and treated with vehicle; (2), HFD: mice fed the HFD diet and treated with vehicle; (3), CGS-D1: mice fed the HFD diet and treated with 5 μg/kg of CGS26214; (4), CGS-D2: mice fed the HFD diet and treated with 10 μg/kg of CGS26214; (5) CGS-D3: mice fed the HFD diet and treated with 20 μg/kg of CGS 26214; (6) CNG-D1: mice fed the HFD diet and treated with CGS-ANG loaded with CGS26214 at a dose of 5 μg/kg; (7) CNG-D2: mice fed the HFD diet and treated with CGS-ANG loaded with CGS 26214 at a dose of 10 μg/kg; (8) CNG-D3: mice fed the HFD diet and treated with CGS-ANG loaded with CGS 26214 at a dose of 20 μg/kg; (9) BNG: mice fed the HFD diet and treated with BNG with the same dose of nanogels as group (8). All the treatments were injected intraperitoneally at the doses indicated once per day before the dark cycle of the day for 5 weeks.
as §2, §3

[5] = tested on: Diet Induced Obese (DIO) mice; test: In vivo insulin resistance analysis (HOMA-IR) in DIO mice; conditions: 24 weeks HFD then 5-week dosing at 5, 10 or 20 μg/kg
Method: DIO mice were used to study the in vivo effects of CYTA-001 on insulin resistance within the context of obesity and diet. Homeostatic model assessment for insulin resistance (HOMA-IR) levels were measured in DIO mice that were conditioned on high fat diets (HFD) for 24 weeks prior to a 5-week dosing regimen. The HFD DIO mice were treated with either the non-liver targeted TRβ agonist, Axitirome (CGS26214), also referred to as “drug” in FIG. 11, or CYTA-001 at 5 μg/kg, 10 μg/kg, or 20 μg/kg dosages for 5 weeks.

[6] = tested on: Diet Induced Obese (DIO) mice; test: In vivo serum T4 and TSH analysis in Diet Induced Obese mice; conditions: 5, 10 or 20 μg/kg, 12-week and 24-week timepoints, compared to lean control and high fat control
Method: A Diet Induced Obese (DIO) mouse model was used to study the in vivo effects of the CGS26214-encapsulated nanogels with anionic group-modified backbone (CGS-ANG), referred to as “CYTA-001,” on serum T4 and TSH within the context of obesity.
The DIO mice were treated with either the non-liver targeted TRβ agonist, Axitirome (CGS26214), also referred to as “drug” in FIGS. 10A and B, or CYTA-001 at 5 μg/kg, 10 μg/kg, or 20 μg/kg for 12 weeks or 24 weeks. Treated DIO mice serum T4/TSH levels were compared to a lean control (LC control), or low fat diet, and to a high fat control (HF control). After each designated treatment period, all the mice were sacrificed unfasted by cardiac puncture after gradual-fill CO2 asphyxiation. Terminal blood samples were collected in SST-SERUM separator tubes for serum collection.
Serum was analyzed for thyroid hormone T4 and thyroid stimulating hormone (TSH) levels. […] This is an unexpected result as thyromimetics have not been observed for weight loss without some level of peripheral activation of the TRα or TRβ receptor. Peripheral activation of the TRα receptor is generally toxic and ideally avoided.

[7] = 10 μg/kg CGS26214 i.p. once per day
[8] = 20 μg/kg CGS26214 i.p. once per day
[9] = 60 μg/kg CGS26214 i.p. once per day
[10] = 5 μg/kg CGS26214 i.p. once per day

change in serum TSH [6]: statistically significant change
Compound: CCOC(=O)C(=O)Nc1cc(C)c(Oc2ccc(O)c(C(O)c3ccc(F)cc3)c2)c(C)c1 (racemic) [CGS26214, ethyl (+−)-((4-(3-((4-fluorophenyl)hydroxymethyl)-4-hydroxyphenoxy)-3,5-dimethylphenyl)amino)oxoacetate]
effects on body weight [1]: only moderate effects | effects on liver weight [1]: only moderate effects | fibrosis and collagen deposition (Masson's trichrome staining) [2]: show signs of fibrosis and collagenous tissue fiber formation | steatosis, inflammation and ballooning degeneration (hematoxylin-eosin staining) [2]: show macrovesicular and microvesicular steatosis, inflammation, and ballooning degeneration | ALT [3, 7]: 196 ± 26 | AST [3, 7]: 205 ± 27 | Cholesterol [3, 7]: 158.2 ± 19.2 mg/dL | HDL Cholesterol [3, 7]: 87.2 ± 9.6 mg/dL | LDL Cholesterol [3, 7]: <7 mg/dL | Triglycerides [3, 7]: 87.6 ± 3.5 mg/dL | ALT [3, 8]: 217 ± 28 | AST [3, 8]: 252 ± 47 | Cholesterol [3, 8]: 155.8 ± 11.8 mg/dL | HDL Cholesterol [3, 8]: 76.8 ± 5.8 mg/dL | LDL Cholesterol [3, 8]: <7 mg/dL | Triglycerides [3, 8]: 83.5 ± 10 mg/dL | ALT [3, 9]: 279 ± 68 | AST [3, 9]: 303 ± 49 | Cholesterol [3, 9]: 105.5 ± 23.7 mg/dL | HDL Cholesterol [3, 9]: 53.1 ± 10.8 mg/dL | LDL Cholesterol [3, 9]: <7 mg/dL | Triglycerides [3, 9]: 78.7 ± 7.2 mg/dL | reversing or preventing changes in biochemical markers induced by the high-fat diet ([3]; summary of Tables 2 and 3 (12 week and 24 week models), compared with LC control): much less effective | ALT [4, 10]: 276 ± 20^d | AST [4, 10]: 319 ± 15^ceg | Cholesterol [4, 10]: 278.9 ± 20.2^cef mg/dL | LDL Cholesterol [4, 10]: 18.4 ± 2.3 mg/dL | ALT [4, 7]: 257 ± 20^cd | Cholesterol [4, 7]: 236.8 ± 16.6^cd mg/dL | HDL Cholesterol [4, 7]: 113.4 ± 5.5^ab mg/dL | LDL Cholesterol [4, 7]: 15.3 ± 1.1 mg/dL | Triglycerides [4, 7]: 94.7 ± 9.5^cdf mg/dL | ALT [4, 8]: 225 ± 10^cd | AST [4, 8]: 247 ± 17^de | Cholesterol [4, 8]: 196.9 ± 10.2^ade mg/dL | HDL Cholesterol [4, 8]: 96.3 ± 3.9^ac mg/dL | LDL Cholesterol [4, 8]: 11.4 ± 1.2 mg/dL | Triglycerides [4, 8]: 90.3 ± 5.7^ad mg/dL | insulin resistance (HOMA-IR) [5]: not observed to produce a significant effect
